{"source": "patent US5675031A", "about": "“4-hydroxy-2-cyclopentenone derivatives and anticancer agent and bone formation accelerator containing the same” (Teijin Limited, priority 1992, dated 1997)", "key": {"[1]": {"system": "L1210 tumor cells", "experiment": "anticancer activity (growth of L1210 tumor cells, trypan blue staining of surviving cells)", "assay_type": "cell-based", "settings": "Mus musculus, 48 h, 2.5×10^4 cells/ml, grown for 2 days", "description": "Measurement of anticancer activity\nTumor cells were grown in an RPMI 1640 medium containing of 10% fetal calf serum.\nThe compound was dissolved in 99.5% ethanol, adjusted before use so that the final concentration of ethanol was 0.1% or less, and added to the medium.\nThe control was 0.1% ethanol, and L1210 tumor cells were inoculated in the medium in a concentration of 2.5×10^4 cells/ml and grown for 2 days. The number of surviving cells were measured by trypan blue staining."}, "[2]": {"system": "Human osteoblasts (KK-3, 18PDL)", "experiment": "bone formation activity (Ca, P and alkaline phosphatase in human osteoblasts)", "assay_type": "cell-based", "settings": "14 days", "description": "Measurement of bone formation activity\nHuman osteoblasts (KK-3, 18PDL) were cultured in an α-MEM containing 10% fetal calf serum. After the growth become stationary, the compound was added in a given concentration in the presence of 2 mM α-glycerophosphate and treated for 14 days. The cell phase was washed with physiological saline, and the alkaline phosphatase activity (ALP) was measured through the absorption of OD415. Then, calcium (Ca) and phosphorus (P) were extracted with a 2N hydrochloric acid and quantitatively determined."}, "[3]": {"settings": "Table 6, 1.0 × 10^-6, control 0.550 ± 0.040"}, "[4]": {"settings": "Table 6, 1.0 × 10^-6, control 11.00 ± 1.73"}, "[5]": {"settings": "Table 6, 2.5 × 10^-7 M, control 0.550 ± 0.040"}, "[6]": {"settings": "Table 6, 2.5 × 10^-7 M, control 11.00 ± 1.73"}, "[7]": {"settings": "Table 6, 2.5 × 10^-7 M, control 20.00 ± 1.73"}, "[8]": {"settings": "Table 9, 1.0 × 10^-6 M, control 1.15 ± 0.19"}, "[9]": {"settings": "Table 9, 1.0 × 10^-6 M, control 2.17 ± 2.56"}, "[10]": {"settings": "Table 9, 1.0 × 10^-6 M, control 3.83 ± 1.72"}, "[11]": {"settings": "Table 9, 3.3 × 10^-6, control 1.15 ± 0.19"}, "[12]": {"settings": "Table 9, 3.3 × 10^-6, control 2.17 ± 2.56"}}, "data": [{"smiles": "O=C1C=CC(O)(CCCCOc2ccccc2)/C1=C\\c1ccncc1", "note": "(stereo not shown)", "values": [{"measurement": "IC50", "setting": "[1]", "result": 0.021, "unit": "µg/mL"}]}, {"smiles": "CN(C)c1ccc(C=C2C(=O)C=CC2(O)CCCCOc2ccccc2)cc1", "note": "(stereo not shown)", "values": [{"measurement": "IC50", "setting": "[1]", "result": 0.378, "unit": "µg/mL"}]}, {"smiles": "COC(=O)c1ccc(/C=C2/C(=O)C=CC2(O)CCCCOc2ccccc2)cc1", "note": "(stereo not shown) [drawing 207]", "values": [{"measurement": "IC50", "setting": "[1]", "result": 0.014, "unit": "µg/mL"}]}, {"smiles": "COC(=O)c1ccc(/C=C2/C(=O)C=C(C)C2(O)CCCCOc2ccccc2)cc1", "note": "(stereo not shown) [drawing 208]", "values": [{"measurement": "IC50", "setting": "[1]", "result": 10.8, "unit": "µg/mL"}]}, {"smiles": "COC(=O)c1ccc(/C=C2/C(=O)C(Cl)=CC2(O)CCCCOc2ccccc2)cc1", "note": "(stereo not shown) [drawing 209]", "values": [{"measurement": "IC50", "setting": "[1]", "result": 0.004, "unit": "µg/mL"}]}, {"smiles": "CN(C)c1ccc(/C=C2/C(=O)C(Cl)=CC2(O)CCCCOc2ccccc2)cc1", "note": "(stereo not shown) [drawing 212]", "values": [{"measurement": "IC50", "setting": "[1]", "result": 0.062, "unit": "µg/mL"}]}, {"smiles": "COC(=O)c1ccc(/C=C2/C(=O)C=C[C@@]2(O)CCCCOc2ccccc2)cc1", "note": "[drawing 213]", "values": [{"measurement": "IC50", "setting": "[1]", "result": 0.01, "unit": "µg/mL"}]}, {"smiles": "COC(=O)c1ccc(/C=C2/C(=O)C=C[C@]2(O)CCCCOc2ccccc2)cc1", "note": "[drawing 214]", "values": [{"measurement": "IC50", "setting": "[1]", "result": 0.026, "unit": "µg/mL"}]}, {"smiles": "COC(=O)c1ccc(/C=C2/C(=O)C=CC2(O)CCCCOc2ccccc2)cc1", "note": "(stereo not shown) [drawing 215]", "values": [{"measurement": "ALP", "setting": "[2]; [3]", "result": 0.488, "unit": "OD415 /dish"}, {"measurement": "Ca", "setting": "[2]; [4]", "result": "47.00 ± 1.00", "unit": "μg/dish"}, {"measurement": "ALP", "setting": "[2]; [5]", "result": "0.572 ± 0.028", "unit": "OD415 /dish"}, {"measurement": "Ca", "setting": "[2]; [6]", "result": "22.67 ± 3.51", "unit": "μg/dish"}, {"measurement": "P", "setting": "[2]; [7]", "result": "28.33 ± 2.52", "unit": "μg/dish"}]}, {"smiles": "COC(=O)c1ccc(/C=C2/C(=O)C(Cl)=CC2(O)CCCCOc2ccccc2)cc1", "note": "(stereo not shown) [drawing 216]", "values": [{"measurement": "ALP", "setting": "[2]; [3]", "result": 0.0, "unit": "OD415 /dish"}, {"measurement": "Ca", "setting": "[2]; [4]", "result": "124.50 ± 2.12", "unit": "μg/dish"}, {"measurement": "ALP", "setting": "[2]; [5]", "result": "0.484 ± 0.078", "unit": "OD415 /dish"}, {"measurement": "Ca", "setting": "[2]; [6]", "result": "37.00 ± 1.00", "unit": "μg/dish"}, {"measurement": "P", "setting": "[2]; [7]", "result": "36.00 ± 1.00", "unit": "μg/dish"}]}, {"smiles": "CN(C)c1ccc(/C=C2/C(=O)C(Cl)=CC2(O)CCCCOc2ccccc2)cc1", "note": "(stereo not shown) [drawing 217]", "values": [{"measurement": "P", "setting": "[2]; Table 7, 10^-6 M, control 0.17 ± 0.29", "result": "1.72 ± 0.05", "unit": "μg/dish"}, {"measurement": "Ca", "setting": "[2]; Table 7, 10^-6 M, control 0.33 ± 0.29", "result": "23.50 ± 3.77", "unit": "μg/dish"}, {"measurement": "ALP", "setting": "[2]; Table 7, 10^-6 M, control 0.826 ± 0.006", "result": 0.503, "unit": "OD415 /dish"}, {"measurement": "P", "setting": "[2]; Table 7, 10^-7 M, control 0.17 ± 0.29", "result": "0.33 ± 0.29", "unit": "μg/dish"}, {"measurement": "Ca", "setting": "[2]; Table 7, 10^-7 M, control 0.33 ± 0.29", "result": "0.0 ± 0", "unit": "μg/dish"}, {"measurement": "ALP", "setting": "[2]; Table 7, 10^-7 M, control 0.826 ± 0.006", "result": "0.796 ± 0.047", "unit": "OD415 /dish"}]}, {"smiles": "COC(=O)c1ccc(/C=C2/C(=O)C=C(C)C2(O)CCCCOc2ccccc2)cc1", "note": "(stereo not shown) [drawing 218]", "values": [{"measurement": "Ca", "setting": "[2]; Table 8, 10^-4 M, control 0.33 ± 0.58", "result": "8.133 ± 3.06", "unit": "μg/dish"}, {"measurement": "ALP", "setting": "[2]; Table 8, 10^-4 M, control 1.684 ± 0.068", "result": 0.697, "unit": "OD415 /dish"}, {"measurement": "P", "setting": "[2]; Table 8, 10^-4 M, control 7.67 ± 0.58", "result": "50.33 ± 1.53", "unit": "μg/dish"}, {"measurement": "Ca", "setting": "[2]; Table 8, 10^-5 M, control 0.33 ± 0.58", "result": "1.00 ± 0.0", "unit": "μg/dish"}, {"measurement": "ALP", "setting": "[2]; Table 8, 10^-5 M, control 1.684 ± 0.068", "result": "1.538 ± 0.028", "unit": "OD415 /dish"}, {"measurement": "P", "setting": "[2]; Table 8, 10^-5 M, control 7.67 ± 0.58", "result": "8.33 ± 1.53", "unit": "μg/dish"}]}, {"smiles": "COC(=O)c1ccc(/C=C2/C(=O)C=C[C@]2(O)CCCCOc2ccccc2)cc1", "note": "[drawing 219]", "values": [{"measurement": "ALP", "setting": "[2]; [8]", "result": "0.74 ± 0.06", "unit": "OD415 /dish"}, {"measurement": "Ca", "setting": "[2]; [9]", "result": "18.00 ± 8.00", "unit": "μg/dish"}, {"measurement": "P", "setting": "[2]; [10]", "result": "13.00 ± 4.69", "unit": "μg/dish"}, {"measurement": "ALP", "setting": "[2]; [11]", "result": 1.79, "unit": "OD415 /dish"}, {"measurement": "Ca", "setting": "[2]; [12]", "result": "318.50 ± 12.50", "unit": "μg/dish"}]}, {"smiles": "COC(=O)c1ccc(/C=C2/C(=O)C=C[C@@]2(O)CCCCOc2ccccc2)cc1", "note": "[drawing 220]", "values": [{"measurement": "ALP", "setting": "[2]; [8]", "result": "0.04 ± 0.01", "unit": "OD415 /dish"}, {"measurement": "Ca", "setting": "[2]; [9]", "result": "312.17 ± 12.30", "unit": "μg/dish"}, {"measurement": "P", "setting": "[2]; [10]", "result": "170.33 ± 11.60", "unit": "μg/dish"}, {"measurement": "ALP", "setting": "[2]; [11]", "result": 0.03, "unit": "OD415 /dish"}, {"measurement": "Ca", "setting": "[2]; [12]", "result": "328.00 ± 15.90", "unit": "μg/dish"}]}]}
